Experimental findings from patent US11370774B2, “Substituted benzofuran, benzopyrrole, benzothiophene, and structurally related complement inhibitors” (BioCryst Pharmaceuticals, Inc., priority 2018, dated 2022) are described below.

Each structure is given as a SMILES string.

One may read the IC50 as the concentration needed to halve the response being measured.

The target of the test is Factor D (Homo sapiens (Human), UniProt P00746). As to the kind of experiment: Factor D esterolytic assay (Z-Lys-SBzl substrate, DTNB, 405 nm). Format: biochemical. Conditions: Z-Lys-SBzl 1.29 mM, pH 7.5, 10% DMSO, tested a minimum of three times, read-out: Measured Ki (IC50) Value for Compounds: IC50. In outline: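 Thioester hydrolysis (Z-Lys-SBzl, 1.29 mM) by human Factor D ([…]) detected through DTNB color at 405 nm over 600 sec, minus 690 nm background. Buffer: 100 mM HEPES pH 7.5, 500 mM NaCl, 10% DMSO; optional room-temperature preincubation before substrate. IC50 derived from percent rate inhibition; at least three runs.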
Chain of Factor D (P00746 26-253): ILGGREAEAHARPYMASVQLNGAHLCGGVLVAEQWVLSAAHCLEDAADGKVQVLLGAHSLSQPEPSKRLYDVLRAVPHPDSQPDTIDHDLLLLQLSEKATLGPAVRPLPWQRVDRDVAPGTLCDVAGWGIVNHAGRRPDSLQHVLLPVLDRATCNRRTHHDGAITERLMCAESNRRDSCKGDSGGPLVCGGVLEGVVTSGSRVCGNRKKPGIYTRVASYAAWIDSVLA
Consider `NCc1cccc(-c2cc(CCN3CCC[C@H]3C(=O)NCc3cccc(Cl)c3F)cc3ccoc23)c1` [Compound 369d, (S)-1-(2-(7-(3-(aminomethyl)phenyl)benzofuran-5-yl)ethyl)-N-(3-chloro-2-fluorobenzyl)pyrrolidine-2-carboxamide], for which the half-inhibitory concentration (IC50) is under 1000 nM.

For the compound `NCc1cccc(-c2cc(COc3c(CC(=O)O)cccc3-c3ccccc3)cc3ccoc23)c1` [Compound 370f, 2-(2-((7-(3-(aminomethyl)phenyl)benzofuran-5-yl)methoxy)-[1,1′-biphenyl]-3-yl)acetic acid], the IC50 is under 1000 nM.

As to `CCc1ccc(CC(=O)O)c(OCc2cc(-c3ccnc(CN)c3)c3occc3c2)c1` [Compound 371c, 2-(2-((7-(2-(aminomethyl)pyridin-4-yl)benzofuran-5-yl)methoxy)-4-ethylphenyl)acetic acid], the half-maximal inhibitory concentration (IC50) is under 1000 nM.

Take `Cn1ccc(NCc2cc3cc(COc4ccccc4CC(=O)O)cc(-c4cccc(CN)c4)c3o2)n1` [Compound 372c, 2-(2-((7-(3-(aminomethyl)phenyl)-2-(((1-methyl-1H-pyrazol-3-yl)amino)methyl)benzofuran-5-yl)methoxy)phenyl)acetic acid]: the half-maximal inhibitory concentration (IC50) is under 1000 nM.

`NCc1cccc(-c2cc(COc3ccccc3CC(=O)O)cc3cc(F)oc23)c1F` [Compound 373b, 2-(2-((7-(3-(aminomethyl)-2-fluorophenyl)-2-fluorobenzofuran-5-yl)methoxy)phenyl)acetic acid]: the IC50 was under 1000 nM.

Regarding `NCc1cccc(-c2cc(COc3ccccc3CC(=O)O)cc3cc(-c4ccccc4)oc23)c1` [Compound 374f, 2-(2-((7-(3-(aminomethyl)phenyl)-2-phenylbenzofuran-5-yl)methoxy)phenyl)acetic acid], the 50% inhibitory concentration (IC50) is under 1000 nM.

As for `CCc1ccc(CC(=O)O)c(OCc2cc(-c3ccnc(CN)c3F)c3occc3c2)c1` [Compound 375c, 2-(2-((7-(2-(aminomethyl)-3-fluoropyridin-4-yl)benzofuran-5-yl)methoxy)-4-ethylphenyl)acetic acid], the IC50 was under 1000 nM.

With `NCc1cccc(-c2cc(COc3ccccc3CC(=O)O)cc3cc(Cc4ccccc4)oc23)c1` [Compound 377e, 2-(2-((7-(3-(aminomethyl)phenyl)-2-benzylbenzofuran-5-yl)methoxy)phenyl)acetic acid], the IC50 was under 1000 nM.

In the case of `CN(Cc1ccccc1CC(=O)O)c1cc(-c2cccc(CN)c2)c2occc2c1` [Compound 378d, 2-(2-(((7-(3-(aminomethyl)phenyl)benzofuran-5-yl)(methyl)amino)methyl)phenyl)acetic acid], the IC50 was under 1000 nM.

Consider `Cc1ccc(CC(=O)O)c(OCc2cc(-c3ccnc(CN)c3)c3occ(C(F)(F)F)c3c2)c1` [Compound 379c, 2-(2-((7-(2-(aminomethyl)pyridin-4-yl)-3-(trifluoromethyl)benzofuran-5-yl)methoxy)-4-methylphenyl)acetic acid], for which the IC50 is under 1000 nM.

For the compound `N[C@H](c1cc(-c2cc(COc3ccccc3CC(=O)O)cc3ccoc23)ccn1)C(F)(F)F` [Compound 380e, (R)-2-(2-((7-(2-(1-amino-2,2,2-trifluoroethyl)pyridin-4-yl)benzofuran-5-yl)methoxy)phenyl)acetic acid], the IC50 was over 10000 nM.

Consider `N[C@@H](c1cc(-c2cc(COc3ccccc3CC(=O)O)cc3ccoc23)ccn1)C(F)(F)F` [Compound 381e, (S)-2-(2-((7-(2-(1-amino-2,2,2-trifluoroethyl)pyridin-4-yl)benzofuran-5-yl)methoxy)phenyl)acetic acid], for which the IC50 was over 10000 nM.

For the compound `Cc1coc2c(-c3cccc(CN)c3)cc(COc3ccccc3CC(=O)O)cc12` [Compound 382h, 2-(2-((7-(3-(aminomethyl)phenyl)-3-methylbenzofuran-5-yl)methoxy)phenyl)acetic acid], the concentration for half-maximal inhibition (IC50) is under 1000 nM.

As to `Cc1coc2c(-c3cccc(CN)c3F)cc(COc3ccccc3CC(=O)O)cc12` [Compound 383b, 2-(2-((7-(3-(aminomethyl)-2-fluorophenyl)-3-methylbenzofuran-5-yl)methoxy)phenyl)acetic acid], the half-inhibitory concentration (IC50) is under 1000 nM.

On to `COc1ccc(CC(=O)O)c(OCc2cc(-c3cccc(CN)c3)c3occc3c2F)c1` [Compound 384c, 2-(2-((7-(3-(aminomethyl)phenyl)-4-fluorobenzofuran-5-yl)methoxy)-4-methoxyphenyl)acetic acid], for which the half-inhibitory concentration (IC50) was under 1000 nM.

As for `COc1ccc(CC(=O)O)c(OCc2cc(-c3ccnc(CN)c3F)c3occc3c2F)c1` [Compound 385d, 2-(2-((7-(2-(aminomethyl)-3-fluoropyridin-4-yl)-4-fluorobenzofuran-5-yl)methoxy)-4-methoxyphenyl)acetic acid], the IC50 was under 1000 nM.

For `NCc1cccc(-c2cc(COc3ccc(F)cc3CC(=O)O)c(F)c3ccoc23)c1` [Compound 386c, 2-(2-((7-(3-(aminomethyl)phenyl)-4-fluorobenzofuran-5-yl)methoxy)-5-fluorophenyl)acetic acid], the IC50 is under 1000 nM.

For `NCc1cccc(-c2cc(COc3ccc(F)cc3CC(=O)O)c(F)c3ccoc23)c1F` [Compound 387b, 2-(2-((7-(3-(aminomethyl)-2-fluorophenyl)-4-fluorobenzofuran-5-yl)methoxy)-5-fluorophenyl)acetic acid], the half-maximal inhibitory concentration (IC50) is under 1000 nM.

As to `NCc1nccc(-c2cc(COc3ccc(F)cc3CC(=O)O)c(F)c3ccoc23)c1F` [Compound 388d, 2-(2-((7-(2-(aminomethyl)-3-fluoropyridin-4-yl)-4-fluorobenzofuran-5-yl)methoxy)-5-fluorophenyl)acetic acid], the IC50 is under 1000 nM.

For `NCc1cc(-c2cc(COc3ccc(F)cc3CC(=O)O)c(F)c3ccoc23)ccn1` [Compound 389c, 2-(2-((7-(2-(aminomethyl)pyridin-4-yl)-4-fluorobenzofuran-5-yl)methoxy)-5-fluorophenyl)acetic acid], the IC50 was under 1000 nM.

With `CCc1ccc(CC(=O)O)c(OCc2cc(-c3ccnc(CN)c3)c3oc(F)cc3c2)c1` [Compound 390c, 2-(2-((7-(2-(aminomethyl)pyridin-4-yl)-2-fluorobenzofuran-5-yl)methoxy)-4-ethylphenyl)acetic acid], the half-maximal inhibitory concentration (IC50) is under 1000 nM.

As to `NCc1cccc(-c2cc(COc3cc(-c4ccccc4)ccc3CC(=O)O)cc3ccoc23)c1F` [Compound 391f, 2-(3-((7-(3-(aminomethyl)-2-fluorophenyl)benzofuran-5-yl)methoxy)-[1,1′-biphenyl]-4-yl)acetic acid], the half-inhibitory concentration (IC50) is under 1000 nM.

Turning to `NCc1cccc(-c2cc(COc3c(CC(=O)O)ccc4ccoc34)cc3ccoc23)c1` [Compound 392g, 2-(7-((7-(3-(aminomethyl)phenyl)benzofuran-5-yl)methoxy)benzofuran-6-yl)acetic acid], the IC50 was under 1000 nM.

`NCc1cc(-c2cc(COc3cc(-c4ccccc4)ccc3CC(=O)O)cc3ccoc23)ccn1` [Compound 393d, 2-(3-((7-(2-(aminomethyl)pyridin-4-yl)benzofuran-5-yl)methoxy)-[1,1′-biphenyl]-4-yl)acetic acid]: the IC50 is under 1000 nM.

Take `NCc1nccc(-c2cc(COc3cc(-c4ccccc4)ccc3CC(=O)O)cc3ccoc23)c1F` [Compound 394c, 2-(3-((7-(2-(aminomethyl)-3-fluoropyridin-4-yl)benzofuran-5-yl)methoxy)-[1,1′-biphenyl]-4-yl)acetic acid]: the half-inhibitory concentration (IC50) was under 1000 nM.

Take `NCc1cccc(-c2cc(COc3cc(C4CCCC4)ccc3CC(=O)O)cc3ccoc23)c1` [Compound 395c, 2-(2-((7-(3-(aminomethyl)phenyl)benzofuran-5-yl)methoxy)-4-cyclopentylphenyl)acetic acid]: the IC50 was under 1000 nM.

On to `Cn1cc(-c2ccc(CC(=O)O)c(OCc3cc(-c4cccc(CN)c4)c4occc4c3)c2)cn1` [Compound 396e, 2-(2-((7-(3-(aminomethyl)phenyl)benzofuran-5-yl)methoxy)-4-(1-methyl-1H-pyrazol-4-yl)phenyl)acetic acid], for which the 50% inhibitory concentration (IC50) was under 1000 nM.

With `COc1ccc(-c2ccc(CC(=O)O)c(OCc3cc(-c4cccc(CN)c4)c4occc4c3)c2)c(F)c1` [Compound 397e, 2-(3-((7-(3-(aminomethyl)phenyl)benzofuran-5-yl)methoxy)-2′-fluoro-4′-methoxy-[1,1′-biphenyl]-4-yl)acetic acid], the concentration for half-maximal inhibition (IC50) was under 1000 nM.

Turning to `NCc1cccc(-c2cc(COc3cc(-c4ccc(F)cc4)ccc3CC(=O)O)cc3ccoc23)c1` [Compound 398c, 2-(3-((7-(3-(aminomethyl)phenyl)benzofuran-5-yl)methoxy)-4′-fluoro-[1,1′-biphenyl]-4-yl)acetic acid], the half-maximal inhibitory concentration (IC50) was under 1000 nM.

On to `NCc1cccc(-c2cc(COc3c(CC(=O)O)ccc4ccccc34)cc3ccoc23)c1` [Compound 399d, 2-(1-((7-(3-(aminomethyl)phenyl)benzofuran-5-yl)methoxy)naphthalen-2-yl)acetic acid], for which the half-maximal inhibitory concentration (IC50) is under 1000 nM.

Take `NCc1cccc(-c2cc(COc3ccc4ccccc4c3CC(=O)O)cc3ccoc23)c1` [Compound 400e, 2-(2-((7-(3-(aminomethyl)phenyl)benzofuran-5-yl)methoxy)naphthalen-1-yl)acetic acid]: the half-inhibitory concentration (IC50) is under 1000 nM.

In the case of `NCc1cccc(-c2cc(COc3cc4ccccc4cc3CC(=O)O)cc3ccoc23)c1` [Compound 401e, 2-(3-((7-(3-(aminomethyl)phenyl)benzofuran-5-yl)methoxy)naphthalen-2-yl)acetic acid], the concentration for half-maximal inhibition (IC50) is under 1000 nM.

Turning to `NCc1cccc(-c2cc(N(Cc3ccccc3CC(=O)O)C(=O)OCc3ccccc3)cc3ccoc23)c1` [Compound 404c, 2-(2-(((7-(3-(aminomethyl)phenyl)benzofuran-5-yl)((benzyloxy)carbonyl)amino)methyl)phenyl)acetic acid], the half-inhibitory concentration (IC50) was under 1000 nM.

On to `NCc1ccc(CC(=O)O)c(OCc2cc(-c3ccnc(CN)c3F)c3occc3c2)c1` [Compound 405e, 2-(4-(aminomethyl)-2-((7-(2-(aminomethyl)-3-fluoropyridin-4-yl)benzofuran-5-yl)methoxy)phenyl)acetic acid], for which the half-inhibitory concentration (IC50) is under 1000 nM.
